Legend:
[1] = target: T1, recombinant rat L-type calcium channel (LTCC) subunits (α1c, α2δ, and β1) (Rattus norvegicus, UniProt P22002); assay: FLIPR calcium mobilization assay for L-type calcium channel; format: cell-based; details: calcium mobilization in vitro assay; HEK293 cells stably expressing LTCC, 90 mM KCl
T1 construct: expressed in transfected cells; pcDNA6.2DEST α1c, pcDNA3.2DEST β1, pcDNA3.1-Zeo α2δ)
Procedure: Recombinant human embryonal kidney cells (HEK293, ATCC) stably transfected with either N-type calcium channel (NTCC) subunits (α1b, α2δ, and β3) or L-type calcium channel (LTCC) subunits (α1c, α2δ, and β1) were routinely cultured in growth medium consisting of Dulbecco's Modified Eagles Medium containing 10% FBS, 100 U/mL penicillin, 100 μg/mL streptomycin, 4 mM L-glutamine, 500 μg/mL geneticin (G418), 20 μg/mL Blasticidin S (InVivogen, San Diego, Calif.) and 500 μg/mL zeocin (InVivogen).
FLIPR Calcium Mobilization Assay for L-type Calcium Channel. One day prior to performing this assay, HEK293 cells stably expressing recombinant rat L-type calcium channel (LTCC) subunits (α1c, α2δ, and β1) were trypsinized, then seeded on poly-D-lysine-coated 96-well clear-bottom black plates (Becton Dickinson, Franklin Lakes, N.J.) at 75,000 cells/well. On the day of the assay, the plates were washed with LTCC wash buffer (127 mM NaCl, 2 mM MgCl2, 700 μM NaH2PO4, 5 mM CaCl2, 5 mM NaHCO3, 8 mM HEPES, 10 mM glucose, pH 7.4), then loaded with 0.1 mL of LTCC wash buffer containing Fluo-4 (3 μM final concentration, Molecular Probes, Eugene, Oreg.). After 1 hour, the cells were washed with 0.1 mL LTCC wash buffer and resuspended in 0.05 mL LTCC assay buffer (same composition as LTCC wash buffer). Plates were then transferred to a FLIPR^96 for assay. The FLIPR measured basal Fluo-4 fluorescence for 15 seconds, then added 0.05 mL of each compound tested diluted in LTCC assay buffer at final concentrations ranging from about 846 pM to about 17 μM. Fluo-4 fluorescence was then measured for 5 minutes. 0.1 mL KCl agonist dissolved in LTCC assay buffer was then added to the cells to produce a final concentration of 90 mM KCl, and fluorescence was measured for another 45 seconds. Data were collected over the entire time course and analyzed using Excel, Graph Pad Prism, or an in-house regression analysis software.
L-type Recombinant Cell Line Development. L-type calcium channel expressing HEK-293 cells were created in two stages. Stage 1 was created as follows. The rat α1c, and β1 cDNA expression constructs (2.5 μg each) were co-transfected into human embryonic kidney (HEK-293) cells by Lipofectamine Plus reagent (Invitrogen), as per manufacturer's instructions. 24 hours later, cells were split in limiting dilution into multiple 96-well plates in selection media containing 20 μg/mL blasticidin and 500 μg/mL geneticin, and incubated for 3 weeks at 37° C., 5% CO2, 95% humidity. Plates containing ≦1 clone per well were cultured until wells positive for single clones were confluent. Individual clones were then arrayed into columns of a destination 96-well plate, and partly split into 6-well plates for culture maintenance. Array plates were washed once with LTCC wash (or assay) buffer and cells loaded for 1 hour with 0.1 mL of LTCC buffer containing Fluo-4 (3 μM final concentration, Molecular Probes). Then they were washed twice with 0.1 mL of LTCC buffer, and replaced with 0.1 mL LTCC buffer. Plates were then transferred to a FLIPR^96 for assay. The FLIPR measured basal Fluo-4 fluorescence for 315 seconds, then added 0.1 mL KCl agonist dissolved in LTCC buffer and measured fluorescence for another 45 seconds. Final KCl concentration was 90 mM. Data were collected over the entire time course and analyzed using Excel, Graph Pad Prism, or Activity Base software. The clone with the greatest signal-to-noise ratio, best stability of response with passage number, and best adhesion to PDL precoated plates (Becton Dickinson) was expanded, characterized and used for stage 2 cell line development.
Stage 2 of L-type cell line development was carried out as follows. The rat α2δ cDNA expression construct (5 μg each) was transfected into the stage 1 L-type clonal cell line by Lipofectamine Plus reagent (Invitrogen), as per manufacturer's instructions. […]

[2] = target: T2, N-type calcium channel (NTCC) (Homo sapiens, UniProt Q00975); assay: FLIPR calcium mobilization assay for N-type calcium channel; format: cell-based; details: calcium mobilization in vitro assay; differentiated IMR32 cells, 90 mM KCl, 5 μM nitrendipine
T2 construct: endogenous in cells; host or cells: IMR32 cells (ATCC), differentiated with dibutyryl cAMP and bromodeoxyuridine
T2 sequence (Q00975 whole entry): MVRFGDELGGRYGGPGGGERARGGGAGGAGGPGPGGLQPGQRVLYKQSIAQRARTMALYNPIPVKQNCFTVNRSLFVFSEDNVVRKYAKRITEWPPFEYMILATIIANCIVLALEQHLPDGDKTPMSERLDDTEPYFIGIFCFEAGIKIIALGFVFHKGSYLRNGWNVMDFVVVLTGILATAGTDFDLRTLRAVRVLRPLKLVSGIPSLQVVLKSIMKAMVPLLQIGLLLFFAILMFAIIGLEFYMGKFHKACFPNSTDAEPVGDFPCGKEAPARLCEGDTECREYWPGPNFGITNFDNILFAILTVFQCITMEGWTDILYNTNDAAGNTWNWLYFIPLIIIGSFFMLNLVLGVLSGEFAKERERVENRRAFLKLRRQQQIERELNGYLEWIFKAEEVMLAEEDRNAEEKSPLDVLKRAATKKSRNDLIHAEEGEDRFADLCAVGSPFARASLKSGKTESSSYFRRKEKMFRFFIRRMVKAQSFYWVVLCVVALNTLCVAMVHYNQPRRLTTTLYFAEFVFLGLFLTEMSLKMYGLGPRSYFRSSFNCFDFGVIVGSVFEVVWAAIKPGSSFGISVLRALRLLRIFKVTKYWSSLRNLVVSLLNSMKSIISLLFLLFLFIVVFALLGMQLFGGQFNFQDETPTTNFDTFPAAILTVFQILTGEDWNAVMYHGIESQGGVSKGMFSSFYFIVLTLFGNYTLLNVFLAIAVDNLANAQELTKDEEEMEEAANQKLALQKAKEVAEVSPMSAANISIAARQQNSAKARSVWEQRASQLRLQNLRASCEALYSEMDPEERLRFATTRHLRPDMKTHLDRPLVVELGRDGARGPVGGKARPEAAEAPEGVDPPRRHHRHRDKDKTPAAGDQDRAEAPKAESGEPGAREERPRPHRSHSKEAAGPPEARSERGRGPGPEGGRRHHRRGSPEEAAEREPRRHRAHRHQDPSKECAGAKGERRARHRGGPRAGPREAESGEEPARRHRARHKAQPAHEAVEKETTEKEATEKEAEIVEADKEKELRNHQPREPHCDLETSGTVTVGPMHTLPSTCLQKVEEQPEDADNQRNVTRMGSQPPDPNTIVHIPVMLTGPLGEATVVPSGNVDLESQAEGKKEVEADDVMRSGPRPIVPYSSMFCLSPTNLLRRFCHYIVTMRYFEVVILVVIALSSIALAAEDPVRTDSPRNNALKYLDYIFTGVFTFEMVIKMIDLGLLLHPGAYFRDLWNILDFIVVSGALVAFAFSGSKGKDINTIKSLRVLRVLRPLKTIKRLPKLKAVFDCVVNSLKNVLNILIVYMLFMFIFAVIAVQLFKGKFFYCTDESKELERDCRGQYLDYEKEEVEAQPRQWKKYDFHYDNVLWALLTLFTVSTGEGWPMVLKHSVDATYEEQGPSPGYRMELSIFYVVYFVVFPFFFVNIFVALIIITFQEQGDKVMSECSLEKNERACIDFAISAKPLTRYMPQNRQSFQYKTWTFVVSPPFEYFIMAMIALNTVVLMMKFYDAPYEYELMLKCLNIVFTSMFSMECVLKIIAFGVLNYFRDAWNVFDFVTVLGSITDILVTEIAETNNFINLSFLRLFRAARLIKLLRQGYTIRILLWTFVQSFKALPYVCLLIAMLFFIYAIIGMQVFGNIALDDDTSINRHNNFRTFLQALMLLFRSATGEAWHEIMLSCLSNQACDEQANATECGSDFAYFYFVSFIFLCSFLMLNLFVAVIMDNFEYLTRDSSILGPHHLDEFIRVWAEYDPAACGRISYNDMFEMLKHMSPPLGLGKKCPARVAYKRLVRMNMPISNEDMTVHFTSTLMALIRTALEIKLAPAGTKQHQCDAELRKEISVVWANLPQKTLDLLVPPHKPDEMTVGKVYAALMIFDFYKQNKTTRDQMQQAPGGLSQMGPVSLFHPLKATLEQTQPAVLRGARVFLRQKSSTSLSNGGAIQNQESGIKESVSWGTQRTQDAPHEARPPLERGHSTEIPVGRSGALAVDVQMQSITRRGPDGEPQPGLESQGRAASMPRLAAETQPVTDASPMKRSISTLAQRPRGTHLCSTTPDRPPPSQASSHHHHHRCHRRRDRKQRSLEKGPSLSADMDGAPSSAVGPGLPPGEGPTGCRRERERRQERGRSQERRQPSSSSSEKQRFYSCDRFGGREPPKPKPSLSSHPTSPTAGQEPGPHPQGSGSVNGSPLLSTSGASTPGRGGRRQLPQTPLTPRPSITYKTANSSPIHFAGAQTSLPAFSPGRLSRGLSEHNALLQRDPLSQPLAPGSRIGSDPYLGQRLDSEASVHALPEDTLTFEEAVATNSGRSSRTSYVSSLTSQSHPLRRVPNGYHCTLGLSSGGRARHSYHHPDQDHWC
T2 sequence (P54289 25-956 partner limits assumed): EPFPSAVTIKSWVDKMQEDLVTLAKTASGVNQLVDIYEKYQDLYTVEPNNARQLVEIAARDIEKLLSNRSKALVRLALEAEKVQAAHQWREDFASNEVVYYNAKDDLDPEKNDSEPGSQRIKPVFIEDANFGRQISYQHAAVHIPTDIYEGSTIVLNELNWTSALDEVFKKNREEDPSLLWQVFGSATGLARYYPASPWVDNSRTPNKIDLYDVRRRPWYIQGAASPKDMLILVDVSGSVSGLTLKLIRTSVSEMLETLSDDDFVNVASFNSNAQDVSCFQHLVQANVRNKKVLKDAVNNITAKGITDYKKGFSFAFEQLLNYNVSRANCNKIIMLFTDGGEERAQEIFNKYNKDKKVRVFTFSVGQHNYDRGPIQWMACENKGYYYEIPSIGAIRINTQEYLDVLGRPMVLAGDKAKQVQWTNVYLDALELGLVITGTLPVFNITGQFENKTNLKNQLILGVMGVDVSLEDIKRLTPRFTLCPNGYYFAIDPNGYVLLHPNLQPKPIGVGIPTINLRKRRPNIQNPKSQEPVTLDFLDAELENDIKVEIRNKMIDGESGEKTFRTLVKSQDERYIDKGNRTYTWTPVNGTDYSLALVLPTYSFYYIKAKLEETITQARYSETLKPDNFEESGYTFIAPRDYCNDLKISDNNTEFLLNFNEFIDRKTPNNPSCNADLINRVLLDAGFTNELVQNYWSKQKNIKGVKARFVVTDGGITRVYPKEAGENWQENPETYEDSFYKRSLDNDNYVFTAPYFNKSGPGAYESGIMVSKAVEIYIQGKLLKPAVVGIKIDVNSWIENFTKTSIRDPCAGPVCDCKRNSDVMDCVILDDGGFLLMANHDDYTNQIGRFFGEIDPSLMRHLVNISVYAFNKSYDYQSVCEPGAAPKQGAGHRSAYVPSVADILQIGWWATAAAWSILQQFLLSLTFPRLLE
T2 sequence (P54289 957-1103 partner limits assumed): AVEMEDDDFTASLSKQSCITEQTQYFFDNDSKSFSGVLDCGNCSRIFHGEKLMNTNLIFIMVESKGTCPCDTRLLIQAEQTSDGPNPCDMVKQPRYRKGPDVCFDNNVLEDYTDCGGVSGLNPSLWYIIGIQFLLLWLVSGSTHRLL
T2 sequence (P54284 whole entry partner): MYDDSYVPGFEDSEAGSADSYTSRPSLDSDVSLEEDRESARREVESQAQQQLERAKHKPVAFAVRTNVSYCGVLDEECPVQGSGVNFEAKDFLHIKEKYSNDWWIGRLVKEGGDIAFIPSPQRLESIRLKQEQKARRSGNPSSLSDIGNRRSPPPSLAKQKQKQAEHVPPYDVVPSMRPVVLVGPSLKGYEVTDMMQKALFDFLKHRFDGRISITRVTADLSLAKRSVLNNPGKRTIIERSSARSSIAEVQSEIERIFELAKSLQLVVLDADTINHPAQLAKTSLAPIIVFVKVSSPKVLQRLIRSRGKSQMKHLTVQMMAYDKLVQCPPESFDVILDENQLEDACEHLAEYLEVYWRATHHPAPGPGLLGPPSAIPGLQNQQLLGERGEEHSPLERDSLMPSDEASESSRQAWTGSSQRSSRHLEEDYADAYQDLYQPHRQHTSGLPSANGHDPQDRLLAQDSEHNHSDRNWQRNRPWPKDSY
Procedure: Cell maintenance and differentiation. Unless noted otherwise, cell culture reagents were purchased from Mediatech of Hemdon, Md. IMR32 cells (American Type Culture Collection, ATCC, Manassas, Va.) were routinely cultured in growth medium consisting of minimum essential medium containing 10% fetal bovine serum (FBS, Hyclone, Logan, Utah), 100 U/mL penicillin, 100 μg/mL streptomycin, 2 mM L-glutamine, 1 mM sodium pyruvate, and 1×MEM non-essential amino acids. 80-90% confluent flasks of cells were differentiated using the following differentiation medium: Growth medium plus 1 mM dibutyryl cyclic AMP (Sigma, St. Louis, Mo.), and 2.5 μM bromodeoxyuridine (Sigma). Cells were differentiated for 8 days by replacing differentiation medium every 2-3 days.
FLIPR Calcium Mobilization Assay for N-type Calcium Channel. One day prior to performing this assay, differentiated IMR32 cells were treated with 1× CellStripper, and seeded on poly-D-lysine-coated 96-well clear-bottom black plates (Becton Dickinson, Franklin Lakes, N.J.) at 200,000 cells/well. On the day of the assay, the cell plates were washed with IMR32 buffer (127 mM NaCl, 1 mM KCl, 2 mM MgCl2, 700 μM NaH2PO4, 5 mM CaCl2, 5 mM NaHCO3, 8 mM HEPES, 10 mM glucose, pH 7.4), then pre-stimulated with KCl and loaded as follows: 0.05 mL of IMR32 buffer, 0.05 mL of each compound tested diluted in IMR32 buffer containing 20 μM nitrendipine (Sigma), and 0.1 mL KCl dissolved in IMR32 buffer, plus Fluo-4 were added (3 μM final concentration, Molecular Probes, Eugene, Oreg.). Final test compound concentrations ranged from about 846 μM to about 17 μM, final nitrendipine concentration was 5 μM, and final KCl concentration was 90 mM. After 1 hour, the cells were washed twice with 0.05 mL of each compound tested in nitrendipine-containing IMR32 buffer (no KCl or Fluo-4), and then replaced with 0.1 mL of each compound tested in nitrendipine-containing IMR32 buffer. Plates were then transferred to a Fluorimetric Imaging Plate Reader (FLIPR^96, Molecular Devices, Inc., Sunnyvale, Calif.) for assay. The FLIPR measured basal Fluo-4 fluorescence for 315 seconds (i.e., 5 minutes and 15 seconds), then added 0.1 mL KCl agonist dissolved in IMR32 buffer and measured fluorescence for another 45 seconds. Final test compound concentrations on the cells after FLIPR read ranged from about 846 μM to about 17 μM, final nitrendipine concentration was 5 μM, and final KCl concentration was 90 mM. Data were collected over the entire time course and analyzed using Excel, Graph Pad Prism (version 3.02, Graph Pad, San Diego, Calif.), or an in-house non-linear regression analysis software.

| Molecule | IC50 [1] | IC50 [2] |
| --- | --- | --- |
| O=C(CN1CCCC(N(C2CC2)S(=O)(=O)c2cccc(C(F)(F)F)c2)C1)Nc1ccc(F)cc1 (stereo not drawn) [2-{3-[Cyclopropyl-(3-trifluoromethylbenzenesulfonyl)amino]-piperidin-1-yl}-N-(4-fluorophenyl)-acetamide] | 6180 nM | 360 nM |
| COc1ccc(CNCC(=O)N2CCCC(N(C3CC3)S(=O)(=O)c3cccc(C(F)(F)F)c3)C2)cc1 (stereo not drawn) [N-Cyclopropyl-N-{1-[2-(4-methoxybenzylamino)acetyl]-piperidin-3-yl}-3-trifluoromethylbenzenesulfonamide] | 4650 nM | 420 nM |
| COCCNCCC(=O)N1CCCC(N(C2CC2)S(=O)(=O)c2cccc(C(F)(F)F)c2)C1 (stereo not drawn) [N-Cyclopropyl-N-{1-[3-(2-methoxyethylamino)propionyl]piperidin-3-yl}-3-trifluoromethylbenzenesulfonamide] | 10000 to 20000 nM | 810 nM |
| O=S(=O)(c1cccc(C(F)(F)F)c1)N(C1CC1)C1CCCN(CCCN(c2ccc(F)cc2)c2ccc(F)cc2)C1 (stereo not drawn) [N-Cyclopropyl-N-(1-{3-[bis-(4-fluorophenyl)amino]propyl}piperidin-3-yl)-3-trifluoromethylbenzenesulfonamide] | – | 2220 nM |
| CC(C)CNCCC(=O)N1CCCC(N(C2CC2)S(=O)(=O)c2cccc(C(F)(F)F)c2)C1 (stereo not drawn) [N-Cyclopropyl-N-[1-(3-isobutylaminopropionyl)piperidin-3-yl]-3-trifluoromethylbenzenesulfonamide] | 5630 nM | 820 nM |
| O=C(CCNCCO)N1CCCC(N(C2CC2)S(=O)(=O)c2cccc(C(F)(F)F)c2)C1 (stereo not drawn) [N-Cyclopropyl-N-{1-[3-(2-hydroxyethylamino)propionyl]piperidin-3-yl}-3-trifluoromethylbenzenesulfonamide] | – | 2830 nM |
| CC(C)C[C@H](N)CC(=O)N1CCCC(N(C2CC2)S(=O)(=O)c2cccc(C(F)(F)F)c2)C1 (stereo partly drawn) [(2S)N-[1-(3-Amino-5-methylhexanoyl)piperidin-3-yl]-N-cyclopropyl-3-trifluoromethylbenzenesulfonamide] | 500 nM | 280 nM |
| CC(C)CNC(=O)CN1CCCC(N(C2CC2)S(=O)(=O)c2cccc(C(F)(F)F)c2)C1 (stereo not drawn) [2-{3-[Cyclopropyl-(3-trifluoromethylbenzenesulfonyl)-amino]-piperidin-1-yl}-N-isobutyl-acetamide] | 9820 nM | 430 nM |
| CC(C)NCCC(=O)N1CCCC(N(C2CC2)S(=O)(=O)c2cccc(C(F)(F)F)c2)C1 (stereo not drawn) [N-Cyclopropyl-N-[1-(3-isopropylaminopropionyl)piperidin-3-yl]-3-trifluoromethylbenzenesulfonamide] | 8770 nM | 630 nM |
| (2S)N-Cyclopropyl-N-[1-(2-methylcarbonylpropylamino-4-methylpentanoyl)piperidin-3-yl]-3-trifluoromethylbenzenesulfonamide | – | 510 nM |
| CN[C@@H](CC(C)C)C(=O)N1CCCC(N(C2CC2)S(=O)(=O)c2cccc(C(F)(F)F)c2)C1 (stereo partly drawn) [(2S)N-Cyclopropyl-N-[1-(4-methyl-2-methylaminopentanoyl)-piperidin-3-yl]-3-trifluoromethylbenzenesulfonamide] | 6580 nM | 540 nM |
| CC(C)C[C@H](NC(C)C)C(=O)N1CCCC(N(C2CC2)S(=O)(=O)c2cccc(C(F)(F)F)c2)C1 (stereo partly drawn) [(2S)N-Cyclopropyl-N-[1-(2-isopropylamino-4-methylpentanoyl)piperidin-3-yl]-3-trifluoromethylbenzenesulfonamide] | – | 210 nM |
| CC(C)CCN[C@@H](CC(C)C)C(=O)N1CCCC(N(C2CC2)S(=O)(=O)c2cccc(C(F)(F)F)c2)C1 (stereo partly drawn) [(2S)N-Cyclopropyl-N-{1-[2-(3-methylbutyl)amino-4-methylpentanoyl]piperidin-3-yl}-3-trifluoromethylbenzenesulfonamide] | – | 360 nM |
| CC(C)C[C@H](N)C(=O)N1CCCC(N(C2CC2)S(=O)(=O)c2cccc(C(F)(F)F)c2)C1 (stereo partly drawn) [(2S)N-[1-(2-Amino-4-methylpentanoyl)piperidin-3-yl]-N-cyclopropyl-3-trifluoromethylbenzenesulfonamide] | 6580 nM | 1100 nM |
| O=C(CNCc1cccnc1)N1CCCC(N(C2CC2)S(=O)(=O)c2cccc(C(F)(F)F)c2)C1 (stereo not drawn) [N-Cyclopropyl-N-(1-{2-[(pyridin-3-ylmethyl)amino]acetyl}-piperidin-3-yl)-3-trifluoromethylbenzenesulfonamide] | > 20000 nM | 1200 nM |
| CCN[C@@H](CC(C)C)C(=O)N1CCCC(N(C2CC2)S(=O)(=O)c2cccc(C(F)(F)F)c2)C1 (stereo partly drawn) [(2S)N-Cyclopropyl-N-[1-(2-ethylamino-4-methylpentanoyl)piperidin-3-yl]-3-trifluoromethylbenzenesulfonamide] | 5070 nM | 130 nM |
| O=C(CN1CCC(NS(=O)(=O)c2cccc(C(F)(F)F)c2)C1)Nc1ccc(F)cc1 (stereo not drawn) [N-(4-Fluorophenyl)-2-[3-(3-trifluoromethylbenzenesulfonylamino)-pyrrolidin-1-yl]acetamide] | – | 1680 nM |
| CC(C)CNCC(=O)N1CCCC(N(C2CC2)S(=O)(=O)c2cccc(C(F)(F)F)c2)C1 (stereo not drawn) [N-Cyclopropyl-N-[1-(2-isobutylaminoacetyl)piperidin-3-yl]-3-trifluoromethylbenzenesulfonamide] | 5750 nM | 690 nM |

Reference: patent US8247442B2, “Benzenesulfonamide compounds and their use” (Purdue Pharma L.P., priority 2006, dated 2012)
